# Experimental data: patent US20050054027A1 (priority 2003, published 2005)
# Counter-ions that a name gives are not always drawn.
# System: TMPRSS6
# Experiment: Inhibition of TMPRSS6 protease activity (cleavage of fluorogenic substrate Ac-RKFK-acc)
# Type: biochemical, human
# Details: 2 nM enzyme, 15 min preincubation at room temperature, inhibition constant only in FIG. 4
# Description: The putative catalytic domain of TMPRSS6 minus the pro region was cloned into pFastBac1 (Invitrogen) from a human cDNA library. […] The vector also contains a C-terminal 6His tag to facilitate purification and an N-terminal honeybee melittin secretion signal. Recombinant bacmid was produced using Bac-to-Bac transposition technology (Invitrogen). Sf9 cells (Invitrogen) were then transfected with recombinant bacmid to produce rAcNPV.
# Protease activity of the purified TMPRSS6 was assessed by monitoring the accumulation of the fluorophore 7-amino-4-carbamoylmethylcoumarin (acc) produced by the cleavage of the tetrapeptide substrate Ac-RKFK-acc in assay buffer (50 mM Tris-Cl pH 7.4, 200 mM NaCl, 2 mM CaCl2, 0.01% Tween 20) at 37 C. Data was collected with a Gemini EM plate reader (Molecular Devices) at λex=380 nm and λem=450 nm.
# A 1 mM DMSO solution of camostat mesylate was diluted serially 1:3 in DMSO to a final concentration of 5.6 nM. The TMPRSS6 enzyme was diluted in assay buffer to 2 nM. 1 μl of each camostat dilution was added to 98 μl of the enzyme mixture in a 96 well assay plate (Dynex). The plate was incubated for 15 min at room temperature to allow equilibrium to take place between the enzyme and inhibitor. Afterward, 1 μl of a 1 mM solution of a substrate, Ac-RKFK-acc, was added to each well. […] The inhibition constant was calculated using Prism (GraphPad).
smiles,measurement,value
CN(C)C(=O)COC(=O)Cc1ccc(OC(=O)c2ccc(NC(=N)N)cc2)cc1 [camostat mesylate],inhibition of TMPRSS6 protease activity,inhibited
